Experimental data published in paper PMC11024163, “MmcA is an electron conduit that facilitates both intracellular and extracellular electron transport in Methanosarcina acetivorans” (Nature Communications, 2024).

Biological target: T1, MmcA (Methanosarcina acetivorans, UniProt Q8TSY5)
T1 construct: gene MA_0658; mature holo-protein of 476 aa (signal peptide removed), C-terminal 3xFLAG and twin-Strep tags kept; homologous expression in M. acetivorans, anti-Flag purified from Triton X-100 solubilised membranes; seven covalent hemes c
T1 sequence (Q8TSY5 25-500): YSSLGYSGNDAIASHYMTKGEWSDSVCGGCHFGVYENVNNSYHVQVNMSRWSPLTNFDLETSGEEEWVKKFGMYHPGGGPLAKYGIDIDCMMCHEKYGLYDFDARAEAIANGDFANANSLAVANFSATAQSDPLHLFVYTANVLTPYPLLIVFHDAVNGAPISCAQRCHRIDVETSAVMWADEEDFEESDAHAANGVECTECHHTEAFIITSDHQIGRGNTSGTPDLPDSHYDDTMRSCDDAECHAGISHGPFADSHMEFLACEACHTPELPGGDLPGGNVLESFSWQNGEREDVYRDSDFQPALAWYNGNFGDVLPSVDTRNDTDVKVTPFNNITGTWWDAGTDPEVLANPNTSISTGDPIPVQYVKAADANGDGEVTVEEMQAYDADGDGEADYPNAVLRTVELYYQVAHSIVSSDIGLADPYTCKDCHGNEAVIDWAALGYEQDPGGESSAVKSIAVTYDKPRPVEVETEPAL
Assay: UV-vis spectral oxidation of dithionite-reduced MmcA
Assay type: biochemical
Settings: 2.5–3.5 µM MmcA, 50 mM Tris-HCl, 150 mM NaCl, 2% glycerol, pH 7.4, room temperature, anaerobic

Oc1ccc2nc3ccccc3nc2c1 [2HP, 2-hydroxyphenazine]
UV-vis spectral oxidation of dithionite-reduced MmcA (electron acceptor, soluble methanophenazine analogue, 200 µM): The addition of 2HP instantaneously oxidized MmcA as observed by a shift in its Soret

O=C1c2ccc(S(=O)(=O)O)cc2C(=O)c2ccc(S(=O)(=O)O)cc21 [AQDS, anthraquinone-2,6-disulfonate]
UV-vis spectral oxidation of dithionite-reduced MmcA (electron acceptor in excess): All three electron acceptors oxidized MmcA rapidly
